{"source": "patent US20180353445A1", "about": "“METHODS AND COMPOSITIONS RELATING TO PROTEASOME INHIBITOR RESISTANCE” (Whitehead Institute for Biomedical Research, priority 2017, published 2018)", "key": {"[1]": {"system": "cancer cell lines (GDSC)", "experiment": "Genomics of Drug Sensitivity in Cancer (GDSC) data analysis, IC50 of bortezomib and MG132 vs 19S expression / sigma score", "assay_type": "cell-based, human", "details": "GDSC database", "text": "In some aspects, whether a cancer cell is considered resistant or sensitive to a particular agent may be determined by comparing the IC50 of the agent for the cancer cell with the IC50 of the agent as measured for each cell line in a panel of diverse cancer cell lines. Cancer cells for which the agent has an IC50 in the 10th percentile of IC50 values determined for the agent on a diverse panel of cancer cell lines may be considered sensitive, while cancer cells for which the agent has an IC50 in the 90th percentile of IC50 values determined for the agent on a diverse panel of cancer cell lines may be considered resistant to the agent.\nWe asked if this might correlate with changes in 19S subunit expression. We analyzed the Genomics of Drug Sensitivity in Cancer (GDSC) database, a public resource of transcriptional data and drug responsiveness collected from a spectrum of human cancer cell lines with diverse tissue origins and diverse oncogenic lesions (Garnett et al., 2012). […]\nFurther details of methods used in GDSC dataset analysis: Gene expression and drug sensitivity data was downloaded from the World Wide Web at subdomain cancerrxgene.org. […] For each proteasomal subunit gene, a-score was calculated for each cell line. […] P-values were calculated by t-test, comparing the logEC50s between the 3 sigma and not 3 sigma."}, "[2]": {"system": "T47D cells", "experiment": "Cell viability, T47D cells with doxycycline-inducible PSMD2 shRNA (KD) vs control", "assay_type": "cell-based, human"}, "[3]": {"molecular_target": "T1, FDX2 (Homo sapiens, UniProt Q6P4F2)", "T1 construct": "made in house", "T1 sequence (Q6P4F2 53-183)": "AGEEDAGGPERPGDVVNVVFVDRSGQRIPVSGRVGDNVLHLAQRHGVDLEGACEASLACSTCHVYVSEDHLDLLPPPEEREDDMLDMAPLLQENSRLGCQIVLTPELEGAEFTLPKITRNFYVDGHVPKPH", "experiment": "In vitro Fe-S cluster assembly assay with reduced FDX2", "assay_type": "biochemical", "details": "reduced FDX2 substituted for reduced FDX1", "description": "Fe—S clusters are generated from sulfur extracted from cysteine by the iron sulfur-cluster (ISC) core complex (NFS1-ISD11-Acp-ISCU)2 and iron. A reductant (FDX1 or FDX2) is required for Fc-S cluster biosynthesis (Lill and Muhlenhoff, 2006; Py and Barras, 2010) (FIG. 53A). To investigate the effect of elesclomol on mitochondrial Fe—S cluster biosynthesis, we utilized in vitro Fe—S cluster assembly assays. […] As further confirmation, we examined the effect of elesclomol on electron transfer from reduced FDX1 to the ISC core complex upon the addition of cysteine.\nProtein Expression and Purification—Unlabeled samples of ISCU, unlabeled (NFS1-ISD11-Acp)2 (abbreviated as SDA), unlabeled and [U-^15N]-FDX1 (truncated first 61 amino acids) and unlabeled FDX2 were produced and purified as described previously (Cai et al., 2013; Cai et al., 2017a; Cai et al., 20176). FDX1 and FDX2 were reduced by adding a 10-fold excess of sodium dithionite to oxidized FDX1 or FDX2 in an anaerobic chamber (Coy Laboratory). The reduction of FDX1 or FDX2 was monitored by the color change from dark brown to light pink and by recording IN/vis spectra before and after reduction. […]\nIn vitro Fe—S cluster assembly assay—The in vitro Fe—S cluster assembly assays were carried out as follows. […] The growth of absorbance at 456 nm was used to monitor the assembly of [2Fe-2S] clusters."}, "[4]": {"system": "cancer cells", "experiment": "Cell viability, elesclomol and elesclomol analogs (cell titer-glo)", "assay_type": "cell-based", "details": "across a variety of tumor types", "description": "In addition to the intrinsic sensitivity of certain cancer cells to elesclomol, as our drug screen indicated, the sensitivity of cancer cells to elesclomol can be further enhanced by forcing them into a Hi-OXPHOS state.\nWe examined several elesclomol analogs (FIG. 57B) to determine the structural features that are important for mediating its cytotoxicity. […] Substitution of oxygen for even one of the sulfur groups (compound-5) reduced the activity of elesclomol by 300 fold. The loss of activity was even more pronounced (>>300 fold) when both sulfurs were substituted (compound-6) (FIGS. 51C-51D, FIG. 57C). Various other modifications to the elesclomol scaffold were tolerated, as long as the core sulfur geometry remained intact.\nCell viability—where indicated relative cell number following different drug treatment was conducted by plating cells at 1000 cells/well in 384 well plates. Indicated concentrations of compounds were added 24 hour after plating at least in triplicate for each condition. Viability was measured 72 hours after drug addition using cell titer-glo (Promega) according to manufactures protocol. […]"}}}
{"compound": "CC(C)C[C@H](NC(=O)[C@H](Cc1ccccc1)NC(=O)c1cnccn1)B(O)O", "note": "[bortezomib]", "values": [{"measurement": "average IC50 value in 3-Sigma cell lines vs all other lines", "setting": "[1]", "result": "considerably higher"}, {"measurement": "resistance of cells harboring PSMD2 shRNA vs parental line (EC50)", "setting": "[2]; T47D, transient PSMD2 reduction", "result": "EC50 values increased considerably"}, {"measurement": "resistance after transient reduction of PSMD2", "setting": "[2]; doxycycline-regulated PSMD2 shRNA", "result": "significantly increased resistance"}]}
{"compound": "CN(NC(=O)CC(=O)NN(C)C(=S)c1ccccc1)C(=S)c1ccccc1", "note": "[elesclomol]", "values": [{"measurement": "inhibition of in vitro Fe-S cluster assembly", "setting": "[3]", "result": "almost complete loss of inhibition"}, {"measurement": "inhibition of cancer cell growth", "setting": "[4]", "result": "potent inhibitor of cancer cell growth"}]}
